Assay results as given in patent US12594276B2, “Inhibitors of human immunodeficiency virus replication” (ViiV Healthcare UK (No.5) Limited, priority 2024, dated 2026).

Key:
[1] = system: recombinant NL4-3 virus (nef section replaced with Renilla luciferase gene) in MT-2 cells; assay: HIV cell culture assay (antiviral activity, luciferase readout); type: cell-based; conditions: Renilla, NL43, MT-2 cells infected for 4-5 days with recombinant NL4-3 Renilla luciferase virus
Outline: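 MT-2 cells were infected for 4-5 days with reporter virus made by transfecting the recombinant NL4-3 proviral clone into 293T cells, in the presence of serial compound dilutions. Luciferase activity was read with a live-cell substrate. EC50 came from the exponential median effect equation, (Fa)=1/[1+(ED50/drug conc.)m].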

[2] = Compound cytotoxicity, XTT-based colorimetric assay; type: cell-based; conditions: human; uninfected MT2 cells, day 4, XTT; read-out: CC50
Outline: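 Follows the antiviral assay procedure, but with uninfected MT2 cells. On day 4, cell viability is measured by XTT-based colorimetry, giving CC50 values.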

C[C@@H](CN1C[C@H](F)C[C@H](F)C1)n1nc(NS(C)(=O)=O)c2c(Cl)ccc(-n3c([C@H](Cc4cc(F)cc(F)c4)NC(=O)Cn4nc(C(F)F)c5c4C(F)(F)[C@@H]4C[C@H]54)nc4nc(C5CCC(F)(F)CC5)cc(C5CC5)c4c3=O)c21 (atropisomer, axis not shown; (P)) [Example 735, N-[(1S)-1-[(3P)-3-{4-chloro-1-[(2S)-1-[(3R,5S)-3,5-difluoropiperidin-1-yl]propan-2-yl]-3-methanesulfonamido-1H-indazol-7-yl}-5-cyclopropyl-7-(4,4-difluorocyclohexyl)-4-oxo-3H, 4H-pyrido[2,3-d]pyrimidin-2-yl]-2-(3,5-difluorophenyl)ethyl]-2-[(2S,4R)-9-(difluoromethyl)-5,5-difluoro-7,8-diazatricyclo[4.3.0.0^2,^4]nona-1(6),8-dien-7-yl]acetamide]
EC50 [1]: 0.018 nM | CC50 at 4 days [2]: > 20 nM

Cc1cc(C2CCC(F)(F)CC2)nc2nc([C@H](Cc3cc(F)cc(F)c3)NC(=O)Cn3nc(C4CC4)c4c3C[C@@H]3C[C@H]43)n(-c3ccc(Cl)c4c(NS(C)(=O)=O)nn(CCN5CCC(C)(F)CC5)c34)c(=O)c12 (atropisomer, axis not shown; (P)) [Example 278, N-[(1S)-1-[(3P)-3-{4-chloro-1-[2-(4-fluoro-4-methylpiperidin-1-yl)ethyl]-3-methanesulfonamido-1H-indazol-7-yl}-7-(4,4-difluorocyclohexyl)-5-methyl-4-oxo-3H,4H-pyrido[2,3-d]pyrimidin-2-yl]-2-(3,5-difluorophenyl)ethyl]-2-[(2S,4S)-9-cyclopropyl-7,8-diazatricyclo[4.3.0.0^2,^4]nona-1(6),8-dien-7-yl]acetamide]
EC50 [1]: 0.005 nM | CC50 at 4 days [2]: > 50 nM

Cc1cc(C2CCC(F)(F)CC2)nc2nc([C@H](Cc3cc(F)cc(F)c3)NC(=O)Cn3nc(C4CC4)c4c3C[C@@H]3C[C@H]43)n(-c3ccc(Cl)c4c(NS(C)(=O)=O)nn(CCN5CCO[C@@H](C(C)C)C5)c34)c(=O)c12 (atropisomer, axis not shown; (P)) [Example 456, N-[(1S)-1-[(3P)-3-(4-chloro-3-methanesulfonamido-1-{2-[(2S)-2-(propan-2-yl)morpholin-4-yl]ethyl}-1H-indazol-7-yl)-7-(4,4-difluorocyclohexyl)-5-methyl-4-oxo-3H,4H-pyrido[2,3-d]pyrimidin-2-yl]-2-(3,5-difluorophenyl)ethyl]-2-[(2S,4S)-9-cyclopropyl-7,8-diazatricyclo[4.3.0.0^2,^4]nona-1(6),8-dien-7-yl]acetamide]
EC50 [1]: 0.01 nM | CC50 at 4 days [2]: > 20 nM

CC(C)[C@@H]1CN(CCn2nc(NS(C)(=O)=O)c3c(Cl)ccc(-n4c([C@H](Cc5cc(F)cc(F)c5)NC(=O)Cn5nc(C6CC6)c6c5C[C@@H]5C[C@H]65)nc5nc(C6CCC(F)(F)CC6)ccc5c4=O)c32)CCO1 (atropisomer, axis not shown; (P)) [Example 435, N-[(1S)-1-[(3P)-3-(4-chloro-3-methanesulfonamido-1-{2-[(2R)-2-(propan-2-yl)morpholin-4-yl]ethyl}-1H-indazol-7-yl)-7-(4,4-difluorocyclohexyl)-4-oxo-3H,4H-pyrido[2,3-d]pyrimidin-2-yl]-2-(3,5-difluorophenyl)ethyl]-2-[(2S,4S)-9-cyclopropyl-7,8-diazatricyclo[4.3.0.0^2,^4]nona-1(6),8-dien-7-yl]acetamide]
EC50 [1]: 0.009 nM | CC50 at 4 days [2]: > 20 nM

COCCCn1nc(NS(C)(=O)=O)c2c(Cl)ccc(-n3c([C@H](Cc4cc(F)cc(F)c4)NC(=O)Cn4nc(C(F)F)c5c4C(F)(F)[C@@H]4C[C@H]54)nc4nc(C5(F)CCC(F)(F)CC5)cc(CN5C[C@@H](C)O[C@@H](C)C5)c4c3=O)c21 (atropisomer, axis not shown; (P)) [Example 600, N-[(1S)-1-[(3P)-3-[4-chloro-3-methanesulfonamido-1-(3-methoxypropyl)-1H-indazol-7-yl]-5-{[(2R,6S)-2,6-dimethylmorpholin-4-yl]methyl}-4-oxo-7-(1,4,4-trifluorocyclohexyl)-3H,4H-pyrido[2,3-d]pyrimidin-2-yl]-2-(3,5-difluorophenyl)ethyl]-2-[(2S,4R)-9-(difluoromethyl)-5,5-difluoro-7,8-diazatricyclo[4.3.0.0^2,^4]nona-1(6),8-dien-7-yl]acetamide]
EC50 [1]: 0.008 nM | CC50 at 4 days [2]: > 20 nM

CS(=O)(=O)Nc1nn(CCN2CCCCC2)c2c(-n3c([C@H](Cc4cc(F)cc(F)c4)NC(=O)Cn4nc(C(F)F)c5c4C(F)(F)[C@@H]4C[C@H]54)nc4nc(C5CCC(F)(F)CC5)ccc4c3=O)ccc(Cl)c12 (atropisomer, axis not shown; (P)) [Example 165, N-[(1S)-1-[(3P)-3-{4-chloro-3-methanesulfonamido-1-[2-(piperidin-1-yl)ethyl]-1H-indazol-7-yl}-7-(4,4-difluorocyclohexyl)-4-oxo-3H,4H-pyrido[2,3-d]pyrimidin-2-yl]-2-(3,5-difluorophenyl)ethyl]-2-[(2S,4R)-9-(difluoromethyl)-5,5-difluoro-7,8-diazatricyclo[4.3.0.0^2,^4]nona-1(6),8-dien-7-yl]acetamide]
EC50 [1]: 0.031 nM | CC50 at 4 days [2]: > 50 nM

CS(=O)(=O)Nc1nn(CCOCC(F)(F)F)c2c(-n3c([C@H](Cc4cc(F)cc(F)c4)NC(=O)Cn4nc(C(F)F)c5c4C(F)(F)[C@@H]4C[C@H]54)nc4nc(C5CCC(F)(F)CC5)cc(C(F)F)c4c3=O)ccc(Cl)c12 (atropisomer, axis not shown; (P)) [Example 155, N-[(1S)-1-[(3P)-3-{4-chloro-3-methanesulfonamido-1-[2-(2,2,2-trifluoroethoxy)ethyl]-1H-indazol-7-yl}-7-(4,4-difluorocyclohexyl)-5-(difluoromethyl)-4-oxo-3H,4H-pyrido[2,3-d]pyrimidin-2-yl]-2-(3,5-difluorophenyl)ethyl]-2-[(2S,4R)-9-(difluoromethyl)-5,5-difluoro-7,8-diazatricyclo[4.3.0.0^2,^4]nona-1(6),8-dien-7-yl]acetamide]
EC50 [1]: 0.027 nM | CC50 at 4 days [2]: > 50 nM

Cc1cc(C2CCC(F)(F)CC2)nc2nc([C@H](Cc3cc(F)cc(F)c3)NC(=O)Cn3nc(C4CC4)c4c3C[C@@H]3C[C@H]43)n(-c3ccc(Cl)c4c(NS(C)(=O)=O)nn(CCN5C[C@@H](C)O[C@@H](C)C5)c34)c(=O)c12 (atropisomer, axis not shown; (P)) [Example 230, N-[(1S)-1-[(3P)-3-(4-chloro-1-{2-[(2R,6S)-2,6-dimethylmorpholin-4-yl]ethyl}-3-methanesulfonamido-1H-indazol-7-yl)-7-(4,4-difluorocyclohexyl)-5-methyl-4-oxo-3H,4H-pyrido[2,3-d]pyrimidin-2-yl]-2-(3,5-difluorophenyl)ethyl]-2-[(2S,4S)-9-cyclopropyl-7,8-diazatricyclo[4.3.0.0^2,^4]nona-1(6),8-dien-7-yl]acetamide]
EC50 [1]: 0.006 nM | CC50 at 4 days [2]: > 50 nM

C[C@@H]1CN(CCn2nc(NS(C)(=O)=O)c3c(Cl)ccc(-n4c([C@H](Cc5cc(F)cc(F)c5)NC(=O)Cn5nc(C6CC6)c6c5C[C@@H]5C[C@H]65)nc5nc(C6CCC(F)(F)CC6)cc(C(F)F)c5c4=O)c32)C[C@H](C)O1 (atropisomer, axis not shown; (P)) [Example 240, N-[(1S)-1-[(3P)-3-(4-chloro-1-{2-[(2R,6S)-2,6-dimethylmorpholin-4-yl]ethyl}-3-methanesulfonamido-1H-indazol-7-yl)-7-(4,4-difluorocyclohexyl)-5-(difluoromethyl)-4-oxo-3H,4H-pyrido[2,3-d]pyrimidin-2-yl]-2-(3,5-difluorophenyl)ethyl]-2-[(2S,4S)-9-cyclopropyl-7,8-diazatricyclo[4.3.0.0^2,^4]nona-1(6),8-dien-7-yl]acetamide]
EC50 [1]: 0.026 nM | CC50 at 4 days [2]: > 50 nM

Cc1cc(C2(F)CCC(F)(F)CC2)nc2nc([C@H](Cc3cc(F)cc(F)c3)NC(=O)Cn3nc(C4CC4)c4c3C(F)(F)[C@@H]3C[C@H]43)n(-c3ccc(Cl)c4c(NS(C)(=O)=O)nn(CCN5C[C@@H](C)O[C@@H](C)C5)c34)c(=O)c12 (atropisomer, axis not shown; (P)) [Example 595, N-[(1S)-1-[(3P)-3-(4-chloro-1-{2-[(2R,6S)-2,6-dimethylmorpholin-4-yl]ethyl}-3-methanesulfonamido-1H-indazol-7-yl)-5-methyl-4-oxo-7-(1,4,4-trifluorocyclohexyl)-3H,4H-pyrido[2,3-d]pyrimidin-2-yl]-2-(3,5-difluorophenyl)ethyl]-2-[(2S,4R)-9-cyclopropyl-5,5-difluoro-7,8-diazatricyclo[4.3.0.0^2,^4]nona-1(6),8-dien-7-yl]acetamide]
EC50 [1]: 0.014 nM | CC50 at 4 days [2]: > 20 nM

CS(=O)(=O)Nc1nn(CCN2CCC(F)(F)CC2)c2c(-n3c([C@H](Cc4cc(F)cc(F)c4)NC(=O)Cn4nc(C5CC5)c5c4C[C@@H]4C[C@H]54)nc4nc(C5CCC(F)(F)CC5)c(F)cc4c3=O)ccc(Cl)c12 (atropisomer, axis not shown; (P)) [Example 239, N-[(1S)-1-[(3P)-3-{4-chloro-1-[2-(4,4-difluoropiperidin-1-yl)ethyl]-3-methanesulfonamido-1H-indazol-7-yl}-7-(4,4-difluorocyclohexyl)-6-fluoro-4-oxo-3H,4H-pyrido[2,3-d]pyrimidin-2-yl]-2-(3,5-difluorophenyl)ethyl]-2-[(2S,4S)-9-cyclopropyl-7,8-diazatricyclo[4.3.0.0^2,^4]nona-1(6),8-dien-7-yl]acetamide]
EC50 [1]: 0.021 nM | CC50 at 4 days [2]: > 50 nM
